Source: patent publication US20020143059A1, “Skin care product containing retinoids, retinoid booster and phytoestrogens in a dual compartment package” (priority 2000, published 2002)

Assays:
Retinol Dehydrogenase = experiment: Assay for Retinol Dehydrogenase Activity, liver microsomes; type: biochemical, rat; details: test compound final 100 μM (method)
Description: 2.2 Isolation of rat liver microsomes (modified from R. Martini & M. Murray, “Participation of P450 3A Enzymes in Rat Hepatic Microsomal Renitoic Acid 4-Hydroxylation”, Archives Biochem. Biophys. 303, 57-66 (1993)).
The resulting homogenate was successively centrifuged for 30 min. at 10,000 g, 30 min. at 20,000 g, and 15 min. at 30,000 g, and the resulting supernatant was ultracentrifuged for 80 min. at 105,000 g. […] Protein concentrations were determined as described above.
2.4 Assay for Retinol Dehydrogenase Activity (To identify B2)
The following stock solutions were prepared:
50 mM KH2PO4, pH 7.4 buffer, sterile filtered.
10 mM all trans Retinol (Sigma R7632) in DMSO.
200 mM Nicotinamide adenine dinucleotide phosphate, sodium salt (NADP) (Sigma N0505) in sterile water.
40 mM test compound in appropriate solvent (water, buffer, ethanol, chloroform or DMSO).
1:10 dilution of rat liver Microsomes in 50 mM KH2PO4, pH 7.4 buffer (4 ug/ul).
In a two-dram glass vial with screw cap, add the following in order:
Buffer to give a final volume of 400 μl […]
Aliquots of 60 μL were injected immediately and analyzed for retinoid content.
The chromatography instrumentation consisted of a Waters 600 gradient controller/pump, a Waters 996 Photodiode Array detector and a Waters 474 Scanning Fluorescence detector. […] The eluate was monitored for absorbance at 325 nm and fluorescence at 325 ex/480 em. […]

CRABPII = molecular target: T1, CRABPII (Homo sapiens, UniProt P29373); experiment: CRABPII antagonist radioactive binding assay; details: competition with radioactive all trans retinoic acid, ligand in excess
T1 construct: made in house; host or cells: E. coli BLR(DE3)pLysS
T1 sequence (P29373 1-138): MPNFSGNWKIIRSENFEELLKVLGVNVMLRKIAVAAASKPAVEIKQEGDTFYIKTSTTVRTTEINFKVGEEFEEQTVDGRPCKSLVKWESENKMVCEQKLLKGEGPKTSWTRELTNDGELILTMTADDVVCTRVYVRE
Description: 2.6 Assay for CRABPII antagonists (To identify B4)
2.6.1 Synthesis of CRABPII
The gene CRABPII was cloned in pET 29a-c(+) plasmid (Novagen). The cloned gene was under control of strong bacteriophage T7 transcription and translation signals. The source of T7 polymerase was provided by the host cell E.coli BLR(DE3)pLysS (Novagen). The latter has a chromosomal copy of T7 polymerase under lacUV5 control, induced by the presence of IPTG. The plasmid was transferred into E. coli BLR(DE3)pLysS cells by transformation according to the manufacturer protocol (Novagen).
An overnight culture of the transformed cells was diluted 1:100 into 2xYT containing 50 μg/mL kanamycin and 25 μg/mL chloramphenicol. The cells grew while shaking at 37° C. until the OD at 600 nm reached 0.6-0.8. Then IPTG was added to a final concentration of 1 mM and the culture was incubated for an additional two hours. The cells were harvested by centrifugation at 5000 g for 10 minutes at room temperature. The pellet was stored at −20° C. […]
The supernatant from step a. was loaded onto a 2.5×100 cm column of sephacryl S-300 (Pharmacia) at room temperature. […] Collected 2-mL fractions were checked for ultraviolet absorbance at 280 nm. […]
For the competitive assay, another ligand in excess (6670:1, 670:1 or 70:1) was added to the mix. […] The radioactivity of the filtrate was measured by scintillation counter.

Row | Molecule | % Increase Retinol Dehydrogenase (Retinol Dehydrogenase) | % Inhibition CRABPII (CRABPII)
1 | Phosphatidyl Choline | 21% increase | –
2 | CCCCCCC(O)CCCCCCCCCCC(=O)O (stereo not drawn) [12-Hydroxystearic Acid] | – | >50%
3 | Sphingomyelin | 26% increase | –
